# Laboratory results taken from the supplement of paper PMC10307832.
# Assays:
# Experiment in all cases: relative viability (nuclei count vs DMSO), 5 days (fraction); higher = more cells survive
# [1] = compound: Nc1ccccc1NC(=O)c1ccc(CNC(=O)OCc2cccnc2)cc1 [Entinostat] + O=C(CCCCCCC(=O)Nc1ccccc1)NO [Vorinostat] (partner 1 µM)
# Outline: (§1)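 Five library-drug doses in √10 steps were combined with a fixed anchor-drug dose, or a single drug was given alone, by pin tool to lung cancer cell lines in 1536-well plates the day after seeding. Nuclei were stained and counted after 5 days. Relative viability is the nuclei count in treated wells over that in vehicle wells, taken as the median of duplicate plates.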
# [2] = compound: CN1CCC(CNc2ccc3ncc(-c4cccc(OC(F)(F)F)c4)n3n2)CC1 [SGI-1776] + Cc1nc(Nc2ncc(C(=O)Nc3c(C)cccc3Cl)s2)cc(N2CCN(CCO)CC2)n1 [Dasatinib] (partner 0.075 µM)
# Outline: as §1
# [3] = compound: Nc1ccccc1NC(=O)c1ccc(CNC(=O)OCc2cccnc2)cc1 [Entinostat] + CC(=O)Nc1cccc(-n2c(=O)n(C3CC3)c(=O)c3c(Nc4ccc(I)cc4F)n(C)c(=O)c(C)c32)c1 [Trametinib] (partner 0.02 µM)
# Outline: as §1
# [4] = compound: Nc1ccccc1NC(=O)c1ccc(CNC(=O)OCc2cccnc2)cc1 [Entinostat] + Cc1cc(Nc2cc(N3CCN(C)CC3)nc(Sc3ccc(NC(=O)C4CC4)cc3)n2)n[nH]1 [Tozasertib] (partner 0.1 µM)
# Outline: as §1
cell line,measurement,setting,value
UMC-11,relative viability,[1]; first compound 0.02 µM,0.43
same,relative viability,[1]; first compound 0.06325 µM,0.321
same,relative viability,[1]; first compound 0.2 µM,0.242
same,relative viability,[1]; first compound 0.6325 µM,0.181
same,relative viability,[1]; first compound 2 µM,0.12
same,relative viability,[2]; first compound 0.08 µM,0.449
same,relative viability,[2]; first compound 0.8 µM,0.455
same,relative viability,[2]; first compound 2.53 µM,0.615
same,relative viability,[2]; first compound 8 µM,0.392
same,relative viability,[3]; first compound 0.02 µM,0.736
same,relative viability,[3]; first compound 0.06325 µM,0.895
same,relative viability,[3]; first compound 0.2 µM,0.554
same,relative viability,[3]; first compound 0.6325 µM,0.163
same,relative viability,[3]; first compound 2 µM,0.142
same,relative viability,[4]; first compound 0.02 µM,0.218
same,relative viability,[4]; first compound 0.06325 µM,0.201
same,relative viability,[4]; first compound 0.2 µM,0.206
same,relative viability,[4]; first compound 0.6325 µM,0.192
same,relative viability,[4]; first compound 2 µM,0.163
